Patent publication US20250059499A1, “CELL-SURFACE ENGINEERING COMPOSITIONS AND METHODS FOR THE PREVENTION OF IMMUNE REJECTION” (THE UNIVERSITY OF BRITISH COLUMBIA, priority 2021, published 2025)
LPG = linear polyglycerol, Mn 14,900 Da

Tests used:
Ea.hy926 cells = assay: Lifetime of grafted polymer on the cell surface; format: cell-based; conditions: 37° C., after ligation with 0.5 mM polymer
Protocol: For lifetime measurements, polymers were attached to endothelial surfaces according to procedures outlined herein using 0.5 mM LPG-Q (10% BODIPY FL™) and exchanged into phenol-free DMEM (5% FBS, pen/strep) and incubated at 37° C. and 5% CO2. For each time point the supernatant was removed and saved for further analysis and the cell monolayers were trypsinized and subjected to flow cytometry (CytoFLEX™, Beckman Coulter™) in which 10,000 events were acquired and the median fluorescent intensity (MFI) in the 488 channel was recorded. The fluorescent intensity of the BODIPY-FL Dye in the supernatant was measured (λex/λem=503/520 nm using) a plate reader (Spectramax i3™, Molecular Devices™). Intensity values were normalized to the total cell number in each well as assessed by a trypan blue staining assay.

[1] = system: Balb/c aortic allograft in C57BL/6 recipient; assay: Murine aortic interposition grafting, morphological analysis of allograft arteries; format: in vivo, mouse; conditions: day 2 post-transplantation
Protocol: Murine aortic interposition grafting was performed as described previously.^13,14 Segments of abdominal aorta from Balb/c (H2d) donor mice were excised, flushed with UW solution and then incubated in UW solution alone (containing 5 Mm CaCl2, 0.2 U/Ml gTGase and 3 mM GSH) or UW solution fortified with 0.2 U/mL gtTGase and 0.5 Mm polymer (LPG-Q, LPG-QSia3Lac) for 1 hour at 4° C. Aortic segments were then flushed with saline and interposed into the resected infra-renal aorta of C57BL/6 (H2b) recipient mice.
At day 2, 15 and 42 post-transplantation, grafted artery segments were perfusion fixed with 4% (v/v) paraformaldehyde, excised, and frozen in optimal cutting temperature medium. […] Medial thickness was quantified using ImageJ software (NIH) as described.69 Histological features of acute rejection at day 15 post-transplantation were graded in a blinded manner on a 0-12 scale because acute rejection involves more extensive features of immune reaction and injury compared to day 2 post-transplantation. […] Leukocyte infiltration, medial injury and intimal thickening were each graded on a 0-4 scale and an aggregate score calculated. For evaluation of chronic rejection, intimal thickening at day 42 was quantified by averaging the luminal narrowing in 3 cross-sections per artery that were ˜100, 150 and 200 μm past the suture sites using ImageJ™ software.

linear polyglycerol glutamine (Ac-GQQQLGGGGG-{LPG}; not fully specified; also: part of the polymer BODIPY FL-labelled in some experiments) [LPG-Q]
half-life (t1/2) on the cell surface (Ea.hy926 cells): 8 h
medial inflammation (graded 0-4) [1]: not demonstrated
